# Measured values reported in US11083728B2, “Compositions of cyclin dependent kinase 7 (CDK7) inhibitor” (Syros Pharmaceuticals, Inc., priority 2017, dated 2021).
# Like-named read-outs stand apart in the source and are kept apart here.
# Experiments:
# Type in all cases: physicochemical
# [1] = Long-term storage stability in co-solvents PEG 300 and PEG 400
# [2] = Infusion solution stability in 0.9% Sodium Chloride for Injection; conditions: for Change in concentration: initial vs 4 hours at ambient temperature and light
# Description: For the infusion solution stability study, duplicate dilutions of the reconstituted Compound 1 in 0.9% Sodium Chloride for Injection, LISP to provide the low (0.01 mg/mL) and high dose (0.6 mg/mL) were prepared. Infusion bags and sets used were made of polyolefin and polyethylene-lined respectively. To bracket the concentrations to be used in the clinic, two concentrations (0.01 mg/mL and 0.6 mg/mL of Compound 1) representing lowest and highest doses were selected. The stability of low and high dose infusion bag dilution is summarized in Table 3 and Table 4, respectively.
# [3] = Equilibrium solubility in various pharmaceutical excipients
# [4] = Stability of reconstituted solution of the particulate composition (5 mg/mL)
# Description: The stability of the reconstituted solution of the particulate composition of Compound 1 of Example 1 was determined up to 4 hours. Duplicate vials of Compound 1 were reconstituted each with 5 mL of Water for Injection, USP.
# [5] = infusion solution 0.01 mg/mL, 4 hours
# [6] = infusion solution 0.01 mg/mL, Initial
# [7] = infusion solution 0.6 mg/mL, 4 hours
# [8] = infusion solution 0.6 mg/mL, Initial
# [9] = reconstituted solution 5 mg/mL, 4 hours
# [10] = reconstituted solution 5 mg/mL, Initial
# [11] = reconstituted solution, initial vs 4 hours at room temperature and light
compound,measurement,setting,value
"CN(C)C/C=C/C(=O)Nc1ccc(C(=O)N[C@@]2(C)CCC[C@@H](Nc3ncc(Cl)c(-c4c[nH]c5ccccc45)n3)C2)nc1 [Compound 1, N-((1S,3R)-3-(5-chloro-4-(1H-indol-3-yl)pyrimidin-2-ylamino)-1-methylcyclohexyl)-5-((E)-4-(dimethylamino)but-2-enamido)picolinamide]",Stability on long-term storage,[1],unstable
same,Change in concentration,[2]; high dose (0.6 mg/mL),no changes
same,Appearance,[2]; [5],Yellowish Clear solution
same,Compound 1 concentration,[2]; [5],0.0099 mg/mL
same,pH,[2]; [5],8.1
same,Appearance,[2]; [6],Yellowish Clear solution
same,Compound 1 concentration,[2]; [6],0.0096 mg/mL
same,pH,[2]; [6],7.6
same,Appearance,[2]; [7],Yellowish Clear
same,Compound 1 concentration,[2]; [7],0.551 mg/mL
same,"Impurities, RRT 1.03",[2]; [7],RRT 1.03 = 0.71% a/a
same,"Impurities, RRT 1.22",[2]; [7],RRT 1.22 = 0.06% a/a
same,"Impurities, RRT 1.43",[2]; [7],RRT = 1.43 = 0.51% a/a
same,"Impurities, RRT 1.60",[2]; [7],RRT = 1.60 = 0.08% a/a
same,"Impurities, Total",[2]; [7],Total = 1.4% a/a
same,pH,[2]; [7],3.6
same,Appearance,[2]; [8],Yellowish Clear
same,Compound 1 concentration,[2]; [8],0.552 mg/mL
same,"Impurities, RRT 1.03",[2]; [8],RRT 1.03 = 0.71% a/a
same,"Impurities, RRT 1.22",[2]; [8],RRT 1.22 = 0.06% a/a
same,"Impurities, RRT 1.43",[2]; [8],RRT = 1.43 = 0.51% a/a
same,"Impurities, RRT 1.60",[2]; [8],RRT = 1.60 = 0.08% a/a
same,"Impurities, Total",[2]; [8],Total = 1.4% a/a
same,pH,[2]; [8],3.6
same,Change in concentration,[2]; low dose (0.01 mg/mL),no changes
same,Change in pH,"[2]; low dose dilution (0.01 mg/mL), initial vs 4 hours",increase
same,solubility,[3]; 50 mM Borate pH 10,<LOQ
same,solubility,"[3]; 50 mM KCl, pH 2, simulated gastric fluid, thermodynamic from solid, 50 mM KCl, pH 2, read-out: Solubility",3600 µg/mL
same,solubility,[3]; 50 mM Phosphate pH 8,<LOQ
same,solubility,"[3]; 50 mM citrate, pH 4, aqueous buffer, thermodynamic from solid, 50 mM Citrate pH 4, read-out: Solubility",3.7 µg/mL
same,solubility,"[3]; 50 mM phosphate buffer, pH 6, aqueous buffer, thermodynamic from solid, 50 mM Phosphate pH 6, read-out: Solubility",1.9 µg/mL
same,solubility,"[3]; 10% Captisol in phosphate buffer, pH 5.5, aqueous with cosolvent or surfactant or cyclodextrin, thermodynamic from solid, 10% Captisol, pH 5.5 (phosphate buffer), read-out: Solubility",4600 µg/mL
same,solubility,"[3]; 20% Captisol in phosphate buffer, pH 5.5, aqueous with cosolvent or surfactant or cyclodextrin, thermodynamic from solid, 20% Captisol, pH 5.5 (phosphate buffer), read-out: Solubility",5900 µg/mL
same,solubility,"[3]; 20% Captisol, 0.1% Tween 80, pH adjusted with HCl, pH 3.5, aqueous with cosolvent or surfactant or cyclodextrin, thermodynamic from solid, 20% Captisol, 0.1% Tween 80, pH 3.5, (HCl), read-out: Solubility",> 10000 µg/mL
same,Solubility (in words),"[3]; Captisol, especially with acidic conditions (pH 3-4) and Tween 80",good solubility
same,solubility,[3]; PEG 300,>19400 µg/mL
same,solubility,"[3]; PEG 300, organic solvent or mixture, thermodynamic from solid, PEG 300, read-out: Solubility",> 19000 µg/mL
same,solubility,[3]; PEG 400,>20800 µg/mL
same,solubility,"[3]; PEG 400, organic solvent or mixture, thermodynamic from solid, PEG 400, read-out: Solubility",> 19000 µg/mL
same,solubility,[3]; Sorensen phosphate Buffer,<LOQ
same,solubility,"[3]; Tween 80, aqueous with cosolvent or surfactant or cyclodextrin, thermodynamic from solid, Tween 80, read-out: Solubility",18300 µg/mL
same,solubility,"[3]; dehydrated alcohol, organic solvent or mixture, thermodynamic from solid, Dehydrated Alcohol, read-out: Solubility",3600 µg/mL
same,Solubility (in words),[3]; in water,poorly soluble
same,solubility,"[3]; propylene glycol, organic solvent or mixture, thermodynamic from solid, Propylene Glycol, read-out: Solubility",4000 µg/mL
same,solubility,"[3]; t-butanol, organic solvent or mixture, thermodynamic from solid, t-Butanol, read-out: Solubility",3200 µg/mL
same,solubility,"[3]; water, thermodynamic from solid, Water, read-out: Solubility",0.12 µg/mL
same,Compound 1 concentration,[4]; [9],4.48 mg/mL
same,"Impurities, RRT 1.04",[4]; [9],RRT 1.04 = 0.70% a/a
same,"Impurities, RRT 1.23",[4]; [9],RRT 1.23 = 0.07% a/a
same,"Impurities, RRT 1.44",[4]; [9],RRT 1.44 = 0.59% a/a
same,"Impurities, RRT 1.47",[4]; [9],RRT 1.47 = 0.42% a/a
same,"Impurities, RRT 1.61",[4]; [9],RRT 1.61 = 0.09% a/a
same,"Impurities, Total",[4]; [9],Total = 1.9% a/a
same,pH,[4]; [9],3.2
same,Appearance,"[4]; reconstituted solution 5 mg/mL, 4 hours, room temperature and light",Yellowish Clear solution
same,Compound 1 concentration,[4]; [10],4.75 mg/mL
same,"Impurities, RRT 1.04",[4]; [10],RRT 1.04 = 0.71% a/a
same,"Impurities, RRT 1.23",[4]; [10],RRT 1.23 = 0.10% a/a
same,"Impurities, RRT 1.46",[4]; [10],RRT 1.46 = 0.55% a/a
same,"Impurities, RRT 1.48",[4]; [10],RRT1.48 = 0.4 % a/a
same,"Impurities, RRT 1.62",[4]; [10],RRT1.62 = 0.0 % a/a
same,"Impurities, Total",[4]; [10],Total = 1.9% a/a
same,pH,[4]; [10],3.2
same,Appearance,"[4]; reconstituted solution 5 mg/mL, Initial, n = 2",Yellowish Clear solution
same,Change in appearance and pH,[4]; [11],unchanged
same,Change in concentration of Compound 1,[4]; [11],slight decrease
same,Change in impurities,[4]; [11],no measurable change
